Source: patent US10399949B2, “NK1 receptor antagonist” (KISSEI PHARMACEUTICAL CO., LTD., priority 2015, dated 2019)

Columns and labels:
human CYP3A4 = biological target: T1, human CYP3A4 (Homo sapiens, UniProt P08684); assay: Inhibitory effect on CYP3A4 (Luciferin-IPA); assay type: in vitro ADME; settings: test compound 10 μM, 30-minutes pre-incubation, Luciferin-IPA 3 μM
T1 construct: purchased BD Biosciences
Description: Inhibitory Effect on CYP3A4
The dimethyl sulfoxide (DMSO) solution of the test compound with a concentration 1000 times higher than the evaluation concentration was prepared, and a reaction solution was prepared by diluting the solution. Enzyme reaction was performed by incubating in a potassium phosphate buffer solution (pH 7.4) containing 1 μM to 10 μM test compound, 3.2 mM magnesium chloride, 0.2 pmol human CYP3A4 (BD Biosciences), 0.5 mM reduced nicotinamide adenine dinucleotide phosphate (NADPH) and 3 μM Luciferin-IPA (Promega) at 37° C. for 10 minutes. The volume of the reaction solution was 50 μL/well. The 30-minutes pre-incubation group was incubated at 37° C. for 30 minutes before adding the substrate, the Luciferin-IPA solution (12.5 μL/well). At the end of the enzyme reaction, 50 μL/well of a Luciferin detection reagent (Promega) was added to the wells, and the plate was left at room temperature for 20 minutes. Then, the emission intensities were measured with Infinite M1000 (TECAN), and the enzyme activities (%) relative to the value of the group to which the test compound was not added. As a comparative example, aprepitant, which is an NK1 receptor antagonist, was tested in the same manner.
Test was measured by the above test method, and the results are shown in Table 9 when the concentration of the test compound was 10 μM. In the table, Ex. No. means the Example number, and Pre-incubation (30 min) (%) means the enzyme activities (%) of the 30-minutes pre-incubation groups using the test compounds.

human NK1 receptor = biological target: T2, human NK1 receptor (Homo sapiens, UniProt P25103); assay: Inhibitory effect on human NK1 receptor (substance P-induced increase in intracellular calcium concentration); assay type: cell-based; settings: HEK-293T; substance P 0.1 μM; compound 1 μM; human NK1 receptor-expressing 293T cells; vehicle = 100%; read-out: SPRR (%) (Substance P-Response Remaining, intracellular calcium concentration)
T2 construct: expressed in transfected cells; host or cells: 293T cells (RIKEN), transient transfection with pcDNA3.1(-) plasmid
T2 sequence (P25103 whole entry): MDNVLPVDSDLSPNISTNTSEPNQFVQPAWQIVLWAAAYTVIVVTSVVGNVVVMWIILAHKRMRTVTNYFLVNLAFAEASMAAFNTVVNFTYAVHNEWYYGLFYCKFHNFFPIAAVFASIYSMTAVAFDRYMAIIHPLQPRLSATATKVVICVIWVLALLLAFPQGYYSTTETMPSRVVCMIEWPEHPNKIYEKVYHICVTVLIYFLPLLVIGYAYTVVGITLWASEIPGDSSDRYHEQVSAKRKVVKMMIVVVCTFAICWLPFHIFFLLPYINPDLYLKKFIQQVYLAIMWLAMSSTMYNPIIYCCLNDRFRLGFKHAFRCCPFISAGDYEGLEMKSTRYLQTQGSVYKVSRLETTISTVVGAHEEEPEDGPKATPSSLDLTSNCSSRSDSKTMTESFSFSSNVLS
Description: Inhibitory Effect on Human NK1 Receptor
(1) Preparation of Human NK1 Receptor-Expressing Cells
Human NK1 receptor-expressing cells were prepared by the same methods as those described in 2-3 and 2-4 of Test Example 1.
(2) Study on Inhibitory Effect on Increase in Intracellular Calcium Concentration
The human NK1 receptor-expressing cells were washed with 300 μL/well of a washing solution (20 mM HEPES/Hanks Balanced Salt Solution (HBSS) pH7.3). A fluorescent calcium indicator (Fluo-4 Direct Calcium Assay Kit, Life Technologies, containing 0.42 mM probenecid and 0.1% bovine serum albumin, prepared according to the protocol of the product) was added to the wells at 150 μL/well, and the plate was incubated at 37° C. for 30 minutes in an incubator. Then, DMSO solutions of a test compound, which were prepared at an 80-time higher concentration using 100% dimethyl sulfoxide (DMSO), were added to the wells at 2.5 μL/well (final concentrations of 0.1, 1 and 10 μM), and the solutions were mixed. Then, the plate was further incubated at 37° C. for 30 minutes in an incubator. After 30 minutes, the intracellular calcium concentrations were measured immediately.
The intracellular calcium concentrations were each measured as a fluorescent signal using FDSS® 7000 (Hamamatsu Photonics). A substance P (Peptide Institute, Inc.) solution which was prepared at 0.4 μM or 4 μM using an assay buffer (20 mM HEPES/Hanks Balanced Salt Solution (HBSS) pH 7.3 containing 0.1% bovine serum albumin) was added automatically to each well at 50 μL/well (final concentration of 0.1 or 1 μM) 10 seconds after starting reading, and the fluorescent signal was measured up to 120 seconds.
The intracellular calcium concentration (%) of the cells to which a test compound was added was calculated by the equation below, where the fluorescent signal of the group to which the vehicle (DMSO) was added was regarded as 100%, and the fluorescent signal before the addition of substance P was regarded as 0%. Intracellular calcium concentration (%)=(Fluorescent signal of test compound addition group)/(Fluorescent signal of vehicle addition group)×100
The intracellular calcium concentration (%) calculated was regarded as the remaining agonist activity of substance P (Substance P-Response Remaining: SPRR). In the table, Ex. No. means the Example number. SPRR (%) means the value obtained when the concentration of substance P was 0.1 μM and the concentration of the compound was 1 μM.

NK1 receptor = biological target: T3, NK1 receptor (Meriones unguiculatus, UniProt Q5DUB1); assay: Effect on foot-tapping induced by NK1 receptor agonist GR73632 in gerbil; assay type: in vivo; settings: male gerbil; 0.3 mg/kg from the jugular vein; GR73632 into the cerebral ventricle after 4 hours; foot-tapping period during 30 minutes
T3 construct: from tissue; host or cells: living male gerbil, central nervous system
T3 sequence (Q5DUB1 whole entry): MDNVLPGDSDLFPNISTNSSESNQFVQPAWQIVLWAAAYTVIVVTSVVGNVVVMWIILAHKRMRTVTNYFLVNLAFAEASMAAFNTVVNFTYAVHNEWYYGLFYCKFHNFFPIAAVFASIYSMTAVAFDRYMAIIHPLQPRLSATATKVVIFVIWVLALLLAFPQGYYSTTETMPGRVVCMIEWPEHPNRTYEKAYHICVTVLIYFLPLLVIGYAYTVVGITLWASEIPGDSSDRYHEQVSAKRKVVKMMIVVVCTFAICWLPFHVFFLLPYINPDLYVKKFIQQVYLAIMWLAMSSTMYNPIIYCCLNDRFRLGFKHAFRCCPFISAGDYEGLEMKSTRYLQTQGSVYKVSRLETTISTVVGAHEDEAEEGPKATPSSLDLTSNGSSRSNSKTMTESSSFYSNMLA
Description: (1) Effect on Foot-tapping
The test compound solution was prepared by dissolving the test compound in a vehicle (a mixture of 50% N,N-dimethylacetamide (Wako Pure Chemical Industries), 30% propylene glycol (Wako Pure Chemical Industries), 4% 2-hydroxypropyl-β-cyclodextrin (Wako Pure Chemical Industries) and 16% distilled water).
(§1) A male gerbil (Japan SLC) was anesthetized with isoflurane, and 0.3 mg/kg of a test compound was administered from the jugular vein. After 4 hours, GR73632 (5 pmol/5 μL saline), which is an NK1 receptor agonist, was administered into the cerebral ventricle at the part 1 mm lateral to and 4.5 mm below the bregma in the head, under anesthesia with isoflurane. After the administration, the gerbil was moved to an observation cage, and the foot-tapping period during 30 minutes after the recovery of the righting reflex was measured. As a comparative example, aprepitant, which is an NK1 receptor antagonist, was tested in the same manner. The foot-tapping inhibition rate (%) of each test compound was calculated by the following equation. Foot-tapping inhibition rate (%)={1−(Foot-tapping period when test compound was administered)/(Foot-tapping period when solvent was administered)}×100 (2) Measurement of Drug Concentrations
In the table, Ex. No. means the Example number. Inhibition (%) means the foot-tapping inhibition rate, and Conc. […]

[1] = Measurement of drug concentrations in the brain after foot-tapping test; assay type: in vivo; settings: male gerbil; 0.3 mg/kg from the jugular vein; brain extracted after foot-tapping was finished; LC/MS
Description: as §1
After foot-tapping was finished, laparotomy was performed immediately under anesthesia with ether, and a blood sample was taken from the abdominal vena cava. At the same time, the brain was extracted. Through a quantitative analysis using liquid chromatography-mass spectrometry (LC/MS), the concentrations of the test compound in the plasma and the brain were measured.
In the table, Ex. No. means the Example number. […]

T1 sequence (P08684 whole entry): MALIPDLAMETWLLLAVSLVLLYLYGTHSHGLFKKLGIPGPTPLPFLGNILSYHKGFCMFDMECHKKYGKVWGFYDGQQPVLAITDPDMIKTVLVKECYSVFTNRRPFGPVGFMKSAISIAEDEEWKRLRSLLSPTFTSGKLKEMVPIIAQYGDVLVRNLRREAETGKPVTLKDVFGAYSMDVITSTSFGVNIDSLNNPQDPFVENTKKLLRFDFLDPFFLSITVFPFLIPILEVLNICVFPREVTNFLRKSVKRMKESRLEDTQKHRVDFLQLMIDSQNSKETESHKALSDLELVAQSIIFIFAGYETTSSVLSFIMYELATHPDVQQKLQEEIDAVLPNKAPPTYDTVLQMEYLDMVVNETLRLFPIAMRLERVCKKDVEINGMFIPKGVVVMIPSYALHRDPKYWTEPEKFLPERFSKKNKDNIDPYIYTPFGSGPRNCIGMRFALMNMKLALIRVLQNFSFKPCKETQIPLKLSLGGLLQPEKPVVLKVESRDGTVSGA

| Compound | Preincubation (30 min) (%) (enzyme activities relative to group without test compound) (human CYP3A4) | remaining activity at 1 µM (human NK1 receptor) | Inhibition(%) (foot-tapping inhibition rate) (NK1 receptor) | Conc. (nM) (drug concentration in the brain) [1] |
| --- | --- | --- | --- | --- |
| Cc1cc(F)ccc1[C@H]1CN(C[C@H]2CC[C@@H](CC(=O)O)CC2)CCN1C(=O)N(C)[C@H](C)c1cc(C(F)(F)F)cc(C(F)(F)F)c1 [Example 4, cis-{4-[(S)-4-{[(R)-1-(3,5-Bistrifluoromethylphenyl)ethyl]methylcarbamoyl}-3-(4-fluoro-2-methylphenyl)piperazin-1-ylmethyl]cyclohexyl}acetic acid] | 18% | 2.1% | 100% | 162 nM |
| Cc1cc(F)ccc1[C@H]1CN(C[C@H]2CC[C@H](CC(=O)O)CC2)CCN1C(=O)N(C)[C@H](C)c1cc(C(F)(F)F)cc(C(F)(F)F)c1 [Example 5, trans-{4-[(S)-4-{[(R)-1-(3,5-Bistrifluoromethylphenyl)ethyl]methylcarbamoyl}-3-(4-fluoro-2-methylphenyl)piperazin-1-ylmethyl]cyclohexyl}acetic acid] | 21% | 8.9% | 100% | 181 nM |
